Assay [1] relates to spontaneous hypertensive rats (MHS). As to the kind of experiment: effect of 5 week-treatment in spontaneous hypertensive rats (MHS) on the development of hypertension (tail cuff SBP and HR). The assay is classed as in vivo, rat. As to conditions: 1 mg/Kg/os daily in Methocel 0.5% w/v, 5 weeks; for SBP (systolic blood pressure): controls (Methocel) 172 +/- 3.5; for HR (heart rate): controls (Methocel) 380 +/- 9.0. How it is done: To test the antihypertensive activity the following test was used:
systolic blood pressure (SBP) and heart rate (HR) were measured, by the tail cuff method, in young prehypertensive male rats (MHS or SHR) strains before the development of hypertension (4 weeks of age) for recording the basal values of SBP. Groups of 7 rats were formed and subdivided in control and treated groups. The compound, suspended in Methocel 0.5% (w/v), was orally given daily for at least 5 weeks to the treated groups. The control group received only Methocel. SBP and HR were measured weekly 6 and 24 hrs after treatment. After 5 weeks of treatment, when hypertension was fully developed in the control group (9 weeks of age), washout was started for at least one week, to verify whether the treatment mantained blood pressure low or reestablished the basal values.
(Takeda K. et al., Japan J. Pharmacol., 1979, 29,171; Takeda K. et al. Japan J. Pharmacol., 1982, 32, 283; Richer C. et al. Eur. J. Pharmacol, 1978, 47,393).

The target in assay [2] is T1, Na^+,K^+ -ATPase (Canis lupus familiaris, UniProt P50997).
T1 construct: from tissue; the cited Jorgensen 1974 method uses outer medulla of mammalian kidney (own knowledge)
As to the kind of experiment: biochemical. From the text:
(§1) To test the affinity for the receptor site of the Na^+,K^+ -ATPase and the agonist or antagonist activity on the enzyme, the following tests were used:
b) inhibition of the activity of the purified Na^+,K^+ -ATPase measured as % of hydrolysis of ^32 P-ATP in presence and in absence of the tested compound (Doucet A. et al., Am. J. Physiol., 1986, 251, F851).

In assay [3] the target is T1, Na^+,K^+ -ATPase. The assay is described as follows: displacement of the specific ^3H-ouabain binding from the purified Na^+,K^+-ATPase receptor.
Text: as §1
a) displacement of the specific ^3 H-ouabain binding from the Na^+,K^+ -ATPase receptor purified according to Jorghensen (Jorghensen P., BBA, 1974, 356, 36) and Erdmann (Erdmann E. et al., Arzneim. Forsh, 1984, 34, 1314);

The mark [4] stands for this setting: purified Na^+,K^+-ATPase, ^32P-ATP hydrolysis, read-out: Inhibitory Activity log IC50 (converted).
[5] abbreviates: ^3H-ouabain displacement, purified Na^+,K^+-ATPase, read-out: Binding ^3 H-Ouab. Displacement log IC50 (converted).

The source of these data is US5955632A, “Seco-d steroids active on the cardiovascular system, processes for their preparation and pharmaceutical compositions containing them” (Sigma-Tau Industrie Farmaceutiche Riunite S.p.A., priority 1996, dated 1999).

Molecules are shown by their SMILES. Counter-ions that a name gives are not always drawn.

Regarding `C[C@@H](C/C=N/OCCN)[C@@]1(C)CC[C@H]2[C@@H](CC[C@@H]3C[C@@H](O)CC[C@@]32C)C1=O` [Comp. I-ae, E-17β-Methyl-15-[(2-aminoethoxy)imino]-5β-14,15-seco-3β-hydroxy-androstan-14-one oxalate], in assay [1], the “SBP (systolic blood pressure)” value is 149 +/- 3.7 mm Hg and the “HR (heart rate)” value is recorded as 370 +/- 11.2 beats/min.
For `C[C@@H](C/C=N/OCCN(C)C)[C@@]1(C)CC[C@H]2[C@@H](CC[C@@H]3C[C@@H](O)CC[C@@]32C)C1=O` [Comp. I-ag, E-17β-Methyl-15-[(2-dimethylaminoethoxy)imino]-5β-14,15-seco-3β-hydroxy-androstan-14-one oxalate], in assay [1], the “SBP (systolic blood pressure)” value is reported as 154 +/- 4.8 mm Hg and the “HR (heart rate)” value is 390 +/- 5.9 beats/min.
As a reminder, the IC50 is the point on the concentration scale where inhibition reaches its midpoint. For the compound `CC[C@H](/C=N/OCCN(C)C)[C@@]1(C)CC[C@H]2[C@@H](CC[C@@H]3C[C@@H](O)CC[C@@]32C)C1=O` [Comp. I-ai, E-17β-2-[(2-Dimethylaminoethoxy)iminomethyl]-5β-14,15-seco-3β-hydroxy-androstan-14-one oxalate], the concentration for half-maximal inhibition (IC50) was 100 µM in assay [2] (setting [4]) and 3.98 µM in assay [3] (setting [5]).
In the case of `CC[C@@H](/C=N/OCCN(C)C)[C@@]1(C)CC[C@H]2[C@@H](CC[C@@H]3C[C@@H](O)CC[C@@]32C)C1=O` [Comp. I-ak, E-17β-2-[(2-Dimethylaminoethoxy)iminomethyl]-5β-14,15-seco-3β-hydroxy-androstan-14-one oxalate], the “SBP (systolic blood pressure)” value in assay [1] is 153 +/- 6.3 mm Hg. Besides, the “HR (heart rate)” value in assay [1] is recorded as 380 +/- 10.0 beats/min. The IC50 was 7.94 µM in assay [2] (setting [4]) and 0.501 µM in assay [3] (setting [5]).
On to `CC[C@@H](C/C=N/OCCN)[C@@]1(C)CC[C@H]2[C@@H](CC[C@@H]3C[C@@H](O)CC[C@@]32C)C1=O` [Comp. I-ao, E-17α-2-[(2-Aminoethoxy)iminomethyl]-5β-14,15-seco-3β-hydroxy-androstan-14-one oxalate], for which the IC50 is 0.2 µM in assay [2] and 0.0398 µM in assay [3].
The like results for `CC[C@H](C/C=N/OCCN(C)C)[C@@]1(C)CC[C@H]2[C@@H](CC[C@@H]3C[C@@H](O)CC[C@@]32C)C1=O` [Comp. I-aq, E-17β-2-[(2-Dimethylaminoethoxy)iminomethyl]-5β-14,15-seco-3β-hydroxy-androstan-14-one oxalate] were, in that order, 12.6 µM and 0.794 µM.
The matching figures for `CC[C@@H](C/C=N/OCCN(C)C)[C@@]1(C)CC[C@H]2[C@@H](CC[C@@H]3C[C@@H](O)CC[C@@]32C)C1=O` [Comp. I-as, E-17α-2-[(2-Dimethylaminoethoxy)iminomethyl]-5β-14,15-seco-3β-hydroxy-androstan-14-one oxalate]: 1.26 µM and 0.1 µM.
For the compound `CC[C@@H](C/C=N/NC(=N)N)[C@@]1(C)CC[C@H]2[C@@H](CC[C@@H]3C[C@@H](O)CC[C@@]32C)C1=O` [Comp. I-ay, E-17α-2-(2-Guanidinoiminoethyl)-5β-14,15-seco-3β-hydroxy-androstan-14-one oxalate], the IC50 was 3.16 µM in assay [2] (setting [4]) and 0.398 µM in assay [3] (setting [5]).
Turning to `CC[C@@H](C/C=C/C=N/OCCN(C)C)[C@@]1(C)CC[C@H]2[C@@H](CC[C@@H]3C[C@@H](O)CC[C@@]32C)C1=O` [Comp. I-be, E,E-17α-4-[(2-Dimethylaminoethoxyimino)-2-butenyl]-5β-14,15-seco-3β-hydroxy-androstan-14-one oxalate], in assay [1], the “SBP (systolic blood pressure)” value is 150 +/- 5.1 mm Hg. The “HR (heart rate)” value in assay [1] was 384 +/- 7.9 beats/min. Moreover, the IC50 in assay [2] (setting [4]) was 6.31 µM; in assay [3] (setting [5]), 0.316 µM.
For the compound `CC[C@@H](C/C=N/OCCN)[C@@]1(C)CC[C@H]2[C@@H](CC[C@H]3C[C@@H](O)CC[C@@]32C)C1=O` [Comp. I-bg, E-17α-2-[(2-Aminoethoxy)iminomethyl]-14,15-seco-3β-hydroxy-androstan-14-one oxalate], in assay [1], the “SBP (systolic blood pressure)” value is given as 151 +/- 5.2 mm Hg. Also, the “HR (heart rate)” value in assay [1] was 388 +/- 9.0 beats/min. Moreover, the values for the IC50 in assay [2] and in assay [3] were 1 µM and 0.158 µM, respectively.
For the compound `CC[C@@H](C/C=N/OCCN(C)C)[C@@]1(C)CC[C@H]2[C@@H](CC[C@H]3C[C@@H](O)CC[C@@]32C)C1=O` [Comp. I-bi, E-17α-2-[(2-Dimethylaminoethoxy)iminomethyl]-14,15-seco-3β-hydroxy-androstan-14-one oxalate], the concentration for half-maximal inhibition (IC50) in assay [2] is 10 µM; in assay [3] it was 2 µM.
